Measured values as given in ChEMBL document CHEMBL1201862, “PubChem BioAssay data set” (2004).
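1) Cells in 96-well plates. 2) Compound, 48 h, 5 concentrations. 3) Linear interpolation between surrounding doses. 4) Unreached endpoint = highest concentration. GI50 is the concentration that inhibits growth by half.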 Activity calls are given as the source filed them. No stated cut-off is given here; in the data, active = GI50 up to about 1.1 µM and inactive = higher.

Columns and labels:
Assay in all cases: NCI-60 cell line screen, 48 h
786-0 = test system: 786-0
A549 = test system: A549
ACHN = test system: ACHN
BT-549 = test system: BT-549
CAKI-1 = test system: CAKI-1
CCRF-CEM = test system: CCRF-CEM
COLO 205 = test system: COLO 205
DU-145 = test system: DU-145
EKVX = test system: EKVX
HCT-116 = test system: HCT-116
HCT-15 = test system: HCT-15
HL-60 = test system: HL-60
HOP-62 = test system: HOP-62
HOP-92 = test system: HOP-92
HT-29 = test system: HT-29
Hs-578T = test system: Hs-578T
IGROV-1 = test system: IGROV-1
K562 = test system: K562
KM12 = test system: KM12
LOX IMVI = test system: LOX IMVI
M14 = test system: M14
MCF7 = test system: MCF7
MDA-MB-231 = test system: MDA-MB-231
MDA-MB-435 = test system: MDA-MB-435
MDA-N = test system: MDA-N
MOLT-4 = test system: MOLT-4
NCI-H226 = test system: NCI-H226
NCI-H23 = test system: NCI-H23
NCI-H460 = test system: NCI-H460
NCI-H522 = test system: NCI-H522
NCI/ADR-RES = test system: NCI/ADR-RES
OVCAR-3 = test system: OVCAR-3
OVCAR-4 = test system: OVCAR-4
OVCAR-5 = test system: OVCAR-5
OVCAR-8 = test system: OVCAR-8
PC-3 = test system: PC-3
RPMI-8226 = test system: RPMI-8226
RXF 393 = test system: RXF 393
SF-268 = test system: SF-268
SF-295 = test system: SF-295
SF-539 = test system: SF-539
SK-MEL-28 = test system: SK-MEL-28
SK-MEL-2 = test system: SK-MEL-2
SK-MEL-5 = test system: SK-MEL-5
SK-OV-3 = test system: SK-OV-3
SN12C = test system: SN12C
SNB-19 = test system: SNB-19
SNB-75 = test system: SNB-75
SR = test system: SR
SW-620 = test system: SW-620
T47D = test system: T47D
TK-10 = test system: TK-10
U-251 = test system: U-251
UACC-257 = test system: UACC-257
UACC-62 = test system: UACC-62
UO-31 = test system: UO-31
HCC 2998 = test system: HCC 2998
Malme-3M = test system: Malme-3M

**Q.** What does the source list for `C(=C\Nc1ccc(-c2ccccc2)cc1)/C=N/c1ccc(-c2ccccc2)cc1`?
**A.** GI50 (786-0): > 100 µM (inactive); GI50 (A549): > 100 µM (inactive); GI50 (ACHN): > 100 µM (inactive); GI50 (BT-549): > 100 µM (inactive); GI50 (CAKI-1): > 100 µM (inactive); GI50 (CCRF-CEM): > 100 µM (inactive); GI50 (COLO 205): > 100 µM (inactive); GI50 (DU-145): > 100 µM (inactive); GI50 (EKVX): > 100 µM (inactive); GI50 (HCT-116): > 100 µM (inactive); GI50 (HCT-15): > 100 µM; GI50 (HL-60): > 100 µM (inactive); GI50 (HOP-62): > 100 µM (inactive); GI50 (HOP-92): > 100 µM (inactive); GI50 (HT-29): > 100 µM (inactive); GI50 (Hs-578T): > 100 µM (inactive); GI50 (IGROV-1): > 100 µM (inactive); GI50 (K562): > 100 µM (inactive); GI50 (KM12): > 100 µM (inactive); GI50 (LOX IMVI): > 100 µM (inactive); GI50 (M14): > 100 µM (inactive); GI50 (MCF7): > 100 µM (inactive); GI50 (MDA-MB-231): 79.8 µM (inactive); GI50 (MDA-MB-435): > 100 µM (inactive); GI50 (MDA-N): > 100 µM (inactive); GI50 (MOLT-4): > 100 µM (inactive); GI50 (NCI-H226): > 100 µM (inactive); GI50 (NCI-H23): > 100 µM (inactive); GI50 (NCI-H460): > 100 µM (inactive); GI50 (NCI-H522): > 100 µM (inactive); GI50 (NCI/ADR-RES): > 100 µM (inactive); GI50 (OVCAR-3): > 100 µM (inactive); GI50 (OVCAR-4): > 100 µM (inactive); GI50 (OVCAR-5): > 100 µM (inactive); GI50 (OVCAR-8): > 100 µM (inactive); GI50 (PC-3): > 100 µM (inactive); GI50 (RPMI-8226): > 100 µM (inactive); GI50 (RXF 393): > 100 µM (inactive); GI50 (SF-268): > 100 µM (inactive); GI50 (SF-295): > 100 µM (inactive); GI50 (SF-539): > 100 µM (inactive); GI50 (SK-MEL-28): > 100 µM (inactive); GI50 (SK-MEL-2): > 100 µM (inactive); GI50 (SK-MEL-5): > 100 µM (inactive); GI50 (SK-OV-3): > 100 µM (inactive); GI50 (SN12C): > 100 µM (inactive); GI50 (SNB-19): > 100 µM (inactive); GI50 (SNB-75): > 100 µM (inactive); GI50 (SR): > 100 µM (inactive); GI50 (SW-620): > 100 µM (inactive); GI50 (T47D): > 100 µM (inactive); GI50 (TK-10): 54.3 µM (inactive); GI50 (U-251): > 100 µM (inactive); GI50 (UACC-257): > 100 µM (inactive); GI50 (UACC-62): > 100 µM (inactive); GI50 (UO-31): > 100 µM (inactive)

**Q.** For `Cc1cc(NS(=O)(=O)c2ccc(NC(NC(=O)C(C(F)(F)F)C(F)(F)F)(C(F)(F)F)C(F)(F)F)cc2)no1`, which GI50 (786-0) is on record?
**A.** The GI50 was > 100 µM (inactive).

**Q.** What about the GI50 (A549) of the same molecule?
**A.** The GI50 was > 100 µM (inactive).

**Q.** And the GI50 (ACHN)?
**A.** The GI50 was > 100 µM (inactive).

**Q.** What about the GI50 (BT-549) of the same molecule?
**A.** The GI50 was > 100 µM (inactive).

**Q.** What about the GI50 (CAKI-1) of the same molecule?
**A.** Its GI50 is > 100 µM (inactive).

**Q.** What about the GI50 (CCRF-CEM) of the same molecule?
**A.** Its GI50 is > 100 µM (inactive).

**Q.** And the GI50 (COLO 205)?
**A.** Its GI50 is > 100 µM (inactive).

**Q.** What about the GI50 (DU-145) of the same molecule?
**A.** The GI50 was > 100 µM (inactive).

**Q.** And the GI50 (EKVX)?
**A.** Its GI50 is > 100 µM (inactive).

**Q.** And the GI50 (HCC 2998)?
**A.** The GI50 was > 100 µM (inactive).

**Q.** What about the GI50 (HCT-116) of the same molecule?
**A.** The GI50 was > 100 µM (inactive).

**Q.** And the GI50 (HCT-15)?
**A.** The GI50 was over 100 µM.

**Q.** And the GI50 (HL-60)?
**A.** Its GI50 is > 100 µM (inactive).

**Q.** What about the GI50 (HOP-62) of the same molecule?
**A.** Its GI50 is > 100 µM (inactive).

**Q.** What about the GI50 (HOP-92) of the same molecule?
**A.** The GI50 was > 100 µM (inactive).

**Q.** What about the GI50 (HT-29) of the same molecule?
**A.** The GI50 was > 100 µM (inactive).

**Q.** What about the GI50 (Hs-578T) of the same molecule?
**A.** The GI50 was > 100 µM (inactive).

**Q.** What about the GI50 (IGROV-1) of the same molecule?
**A.** Its GI50 is > 100 µM (inactive).

**Q.** What about the GI50 (K562) of the same molecule?
**A.** The GI50 was > 100 µM (inactive).

**Q.** What about the GI50 (KM12) of the same molecule?
**A.** Its GI50 is > 100 µM (inactive).

**Q.** What about the GI50 (LOX IMVI) of the same molecule?
**A.** The GI50 was > 100 µM (inactive).

**Q.** And the GI50 (M14)?
**A.** Its GI50 is 58.7 µM (inactive).

**Q.** And the GI50 (MCF7)?
**A.** The GI50 was > 100 µM (inactive).

**Q.** What about the GI50 (MDA-MB-231) of the same molecule?
**A.** Its GI50 is > 100 µM (inactive).

**Q.** And the GI50 (MDA-MB-435)?
**A.** Its GI50 is > 100 µM (inactive).

**Q.** What about the GI50 (MDA-N) of the same molecule?
**A.** The GI50 was > 100 µM (inactive).

**Q.** And the GI50 (MOLT-4)?
**A.** Its GI50 is > 100 µM (inactive).

**Q.** What about the GI50 (Malme-3M) of the same molecule?
**A.** The GI50 was > 100 µM (inactive).

**Q.** What about the GI50 (NCI-H226) of the same molecule?
**A.** The GI50 was > 100 µM (inactive).

**Q.** And the GI50 (NCI-H23)?
**A.** Its GI50 is > 100 µM (inactive).

**Q.** What about the GI50 (NCI-H460) of the same molecule?
**A.** Its GI50 is > 100 µM (inactive).

**Q.** What about the GI50 (NCI/ADR-RES) of the same molecule?
**A.** The GI50 was > 100 µM (inactive).

**Q.** What about the GI50 (OVCAR-3) of the same molecule?
**A.** The GI50 was > 100 µM (inactive).

**Q.** And the GI50 (OVCAR-4)?
**A.** The GI50 was > 100 µM (inactive).

**Q.** What about the GI50 (OVCAR-5) of the same molecule?
**A.** The GI50 was > 100 µM (inactive).

**Q.** What about the GI50 (OVCAR-8) of the same molecule?
**A.** The GI50 was > 100 µM (inactive).

**Q.** What about the GI50 (PC-3) of the same molecule?
**A.** Its GI50 is > 100 µM (inactive).

**Q.** And the GI50 (RPMI-8226)?
**A.** Its GI50 is > 100 µM (inactive).

**Q.** And the GI50 (RXF 393)?
**A.** The GI50 was > 100 µM (inactive).

**Q.** What about the GI50 (SF-268) of the same molecule?
**A.** Its GI50 is > 100 µM (inactive).

**Q.** And the GI50 (SF-295)?
**A.** The GI50 was > 100 µM (inactive).

**Q.** And the GI50 (SF-539)?
**A.** Its GI50 is > 100 µM (inactive).

**Q.** What about the GI50 (SK-MEL-28) of the same molecule?
**A.** The GI50 was > 100 µM (inactive).

**Q.** What about the GI50 (SK-MEL-2) of the same molecule?
**A.** The GI50 was > 100 µM (inactive).

**Q.** And the GI50 (SK-MEL-5)?
**A.** Its GI50 is > 100 µM (inactive).

**Q.** What about the GI50 (SK-OV-3) of the same molecule?
**A.** Its GI50 is 1.96 µM (inactive).

**Q.** And the GI50 (SN12C)?
**A.** The GI50 was > 100 µM (inactive).

**Q.** And the GI50 (SNB-19)?
**A.** The GI50 was > 100 µM (inactive).

**Q.** And the GI50 (SNB-75)?
**A.** The GI50 was > 100 µM (inactive).

**Q.** What about the GI50 (SR) of the same molecule?
**A.** Its GI50 is > 100 µM (inactive).

**Q.** What about the GI50 (SW-620) of the same molecule?
**A.** Its GI50 is > 100 µM (inactive).

**Q.** And the GI50 (T47D)?
**A.** The GI50 was > 100 µM (inactive).

**Q.** What about the GI50 (TK-10) of the same molecule?
**A.** Its GI50 is > 100 µM (inactive).

**Q.** And the GI50 (U-251)?
**A.** The GI50 was > 100 µM (inactive).

**Q.** And the GI50 (UACC-257)?
**A.** The GI50 was > 100 µM (inactive).

**Q.** What about the GI50 (UACC-62) of the same molecule?
**A.** Its GI50 is > 100 µM (inactive).

**Q.** And the GI50 (UO-31)?
**A.** Its GI50 is > 100 µM (inactive).
